The molecules below were run against Human immunodeficiency virus type 1 protease (Human immunodeficiency virus 1, UniProt Q72874) (assay: Inhibition of HIV-1 protease by fluorogenic substrate assay).
For `CC[C@H](C)[C@H](NC(=O)[C@H](CCC(N)=O)NC(=O)[C@@H]1CCCN1C(=O)CCCCC/C=C/CCCCCC(=O)N[C@H](CO)C(=O)N[C@@H](C(=O)N[C@H](CC(C)C)C(=O)N[C@H](CC(N)=O)C(=O)N[C@H](Cc1ccccc1)C(=O)O)[C@H](C)O)C(=O)N[C@H](C(=O)N[C@@H](CC(C)C)C(=O)N[C@@H](Cc1c[nH]c2ccccc12)C(=O)O)[C@@H](C)O`, the IC50 was 51.5 µM. For `CC[C@H](C)[C@H](NC(=O)[C@H](CCC(N)=O)NC(=O)[C@@H]1CCCN1C(=O)CCCCCC/C=C/CCCCCCC(=O)N[C@H](CO)C(=O)N[C@@H](C(=O)N[C@H](CC(C)C)C(=O)N[C@H](CC(N)=O)C(=O)N[C@H](Cc1ccccc1)C(=O)O)[C@H](C)O)C(=O)N[C@H](C(=O)N[C@@H](CC(C)C)C(=O)N[C@@H](Cc1c[nH]c2ccccc12)C(=O)O)[C@@H](C)O`, the IC50 was 17.5 µM. Work on `CC[C@H](C)[C@H](NC(=O)[C@H](CCC(N)=O)NC(=O)[C@@H]1CCCN1C(=O)CCCCCCC/C=C/CCCCCCCC(=O)N[C@H](CO)C(=O)N[C@@H](C(=O)N[C@H](CC(C)C)C(=O)N[C@H](CC(N)=O)C(=O)N[C@H](Cc1ccccc1)C(=O)O)[C@H](C)O)C(=O)N[C@H](C(=O)N[C@@H](CC(C)C)C(=O)N[C@@H](Cc1c[nH]c2ccccc12)C(=O)O)[C@@H](C)O` yielded an IC50 of 6.3 µM. `CC[C@H](C)[C@H](NC(=O)[C@H](CCC(N)=O)NC(=O)[C@@H]1CCCN1C(=O)CCCCCC/C=C\CCCCCCC(=O)N[C@H](CO)C(=O)N[C@@H](C(=O)N[C@H](CC(C)C)C(=O)N[C@H](CC(N)=O)C(=O)N[C@H](Cc1ccccc1)C(=O)O)[C@H](C)O)C(=O)N[C@H](C(=O)N[C@@H](CC(C)C)C(=O)N[C@@H](Cc1c[nH]c2ccccc12)C(=O)O)[C@@H](C)O` was tested, and the IC50 was 12.9 µM. With `CC[C@H](C)[C@H](NC(=O)[C@H](CCC(N)=O)NC(=O)[C@@H]1CCCN1C(=O)CCCCC/C=C\CCCCCC(=O)N[C@H](CO)C(=O)N[C@@H](C(=O)N[C@H](CC(C)C)C(=O)N[C@H](CC(N)=O)C(=O)N[C@H](Cc1ccccc1)C(=O)O)[C@H](C)O)C(=O)N[C@H](C(=O)N[C@@H](CC(C)C)C(=O)N[C@@H](Cc1c[nH]c2ccccc12)C(=O)O)[C@@H](C)O` the IC50 was 32.7 µM. Molecule `CC[C@H](C)[C@H](NC(=O)[C@H](CCC(N)=O)NC(=O)[C@@H]1CCCN1C(=O)CCCCCCCCCCCCCCCCC(=O)N[C@H](CO)C(=O)N[C@@H](C(=O)N[C@H](CC(C)C)C(=O)N[C@H](CC(N)=O)C(=O)N[C@H](Cc1ccccc1)C(=O)O)[C@H](C)O)C(=O)N[C@H](C(=O)N[C@@H](CC(C)C)C(=O)N[C@@H](Cc1c[nH]c2ccccc12)C(=O)O)[C@@H](C)O` has an IC50 of 4 µM. With `CC[C@H](C)[C@H](NC(=O)[C@H](CCC(N)=O)NC(=O)[C@@H]1CCCN1C(=O)CCCCCCCCCCCCCCC(=O)N[C@H](CO)C(=O)N[C@@H](C(=O)N[C@H](CC(C)C)C(=O)N[C@H](CC(N)=O)C(=O)N[C@H](Cc1ccccc1)C(=O)O)[C@H](C)O)C(=O)N[C@H](C(=O)N[C@@H](CC(C)C)C(=O)N[C@@H](Cc1c[nH]c2ccccc12)C(=O)O)[C@@H](C)O` the IC50 was 2 µM. Molecule `CC[C@H](C)[C@H](NC(=O)[C@H](CCC(N)=O)NC(=O)[C@@H]1CCCN1C(=O)CCCCCCCCCCCCC(=O)N[C@H](CO)C(=O)N[C@@H](C(=O)N[C@H](CC(C)C)C(=O)N[C@H](CC(N)=O)C(=O)N[C@H](Cc1ccccc1)C(=O)O)[C@H](C)O)C(=O)N[C@H](C(=O)N[C@@H](CC(C)C)C(=O)N[C@@H](Cc1c[nH]c2ccccc12)C(=O)O)[C@@H](C)O` has an IC50 of 13 µM. `CC[C@H](C)[C@H](NC(=O)[C@H](CCC(N)=O)NC(=O)[C@@H]1CCCN1C(=O)CCCCCCCC#CCCCCCCCC(=O)N[C@H](CO)C(=O)N[C@@H](C(=O)N[C@H](CC(C)C)C(=O)N[C@H](CC(N)=O)C(=O)N[C@H](Cc1ccccc1)C(=O)O)[C@H](C)O)C(=O)N[C@H](C(=O)N[C@@H](CC(C)C)C(=O)N[C@@H](Cc1c[nH]c2ccccc12)C(=O)O)[C@@H](C)O` showed an IC50 of 7.2 µM. In the case of `CC[C@H](C)[C@H](NC(=O)[C@H](CCC(N)=O)NC(=O)[C@@H]1CCCN1C(=O)CCCCCCC#CCCCCCCC(=O)N[C@H](CO)C(=O)N[C@@H](C(=O)N[C@H](CC(C)C)C(=O)N[C@H](CC(N)=O)C(=O)N[C@H](Cc1ccccc1)C(=O)O)[C@H](C)O)C(=O)N[C@H](C(=O)N[C@@H](CC(C)C)C(=O)N[C@@H](Cc1c[nH]c2ccccc12)C(=O)O)[C@@H](C)O`, the IC50 is reported as 4.5 µM. `CC[C@H](C)[C@H](NC(=O)[C@H](CCC(N)=O)NC(=O)[C@@H]1CCCN1C(=O)CCCCCC#CCCCCCC(=O)N[C@H](CO)C(=O)N[C@@H](C(=O)N[C@H](CC(C)C)C(=O)N[C@H](CC(N)=O)C(=O)N[C@H](Cc1ccccc1)C(=O)O)[C@H](C)O)C(=O)N[C@H](C(=O)N[C@@H](CC(C)C)C(=O)N[C@@H](Cc1c[nH]c2ccccc12)C(=O)O)[C@@H](C)O` gave an IC50 of 21 µM. `CC[C@H](C)[C@H](NC(=O)[C@H](CCC(N)=O)NC(=O)[C@@H]1CCCN1C(=O)CCCCCCC/C=C\CCCCCCCC(=O)N[C@H](CO)C(=O)N[C@@H](C(=O)N[C@H](CC(C)C)C(=O)N[C@H](CC(N)=O)C(=O)N[C@H](Cc1ccccc1)C(=O)O)[C@H](C)O)C(=O)N[C@H](C(=O)N[C@@H](CC(C)C)C(=O)N[C@@H](Cc1c[nH]c2ccccc12)C(=O)O)[C@@H](C)O` gave an IC50 of 4.4 µM.

Source: ChEMBL document CHEMBL1130680, “Restricting the flexibility of crosslinked, interfacial peptide inhibitors of HIV-1 protease” (Bioorg Med Chem Lett, 1998)
